Structures can show the parent of a compound that is named as a salt.
Assays:
Solubility = details: for solubility compared with the compound described under (A): relative to Example 5(A)
[1] = tested on: L-dopa induced hypothermia and motor activity; experiment: Interaction with L-dopa (hypothermia, depression and reduction of motor activity); format: in vivo; details: 100 mg/kg; L-dopa 150 mg/kg, mice
Procedure: L-3,4-dihydroxyphenylalanine (L-dopa) was administered in a 150 mg/kg dose, which induces hypothermia, depression and reduction of motor activity.

[2] = tested on: scopolamine induced amnesia; experiment: Scopolamine induced amnesia, passive avoidance test; format: in vivo, Mongolian Gerbil
Procedure: (§1) The protective effect of the compound CAPAH was studied in relation to both scopolamine and hypoxia induced amnesia in gerbils by the passive avoidance test.
(§2) Gerbils underwent a training schedule of "passive avoidance", i.e. they learned not to enter a dark compartment into which an electric shock was delivered.
Scopolamine Induced Amnesia
Gerbils received an intra-peritoneal injection of scopolamine (0.5 mg/kg) 30 minutes before the training procedure. The ability of CAPAH, given prior to scopolamine, to prevent the induced amnesia was determined.
(§3) The gerbils were trained as described above in a step-down type passive avoidance apparatus (Model E13-08, Coulbourn Instruments, Lehigh Valley, USA), divided into a safe part and a grill part. […] Training of the passive avoidance was carried out for 5 minutes. The gerbils were placed on the safety platform and received a series of mild electric shocks, […] (shock sensitivity determined for each batch of gerbils) for 3 seconds every 6 seconds when it stepped off the grill. Gerbils were returned to the apparatus for testing 24 hours later and their step-down latencies to the grill floor (recall latency) were recorded (maximum 60 seconds).
(§4) In both these series of experiments Piracetam was used as a control.

hypoxia induced amnesia = experiment: Hypoxia induced amnesia, passive avoidance test; format: in vivo, Mongolian Gerbil
Excerpt: as §1, §2
The gerbils were trained as described above. To produce a hypoxic environment a gas-mixture (4% oxygen, 96% nitrogen) was blown through a plastic box (12 l/min). Immediately after the training period the gerbil was put into this hypoxic environment and removed when gasping was shown (maximum stay in the hypoxic box is 40 seconds).
as §3, §4

[3] = tested on: hypoxia induced by sodium nitrite; experiment: Lifetime following hypoxia induced by sodium nitrite; format: in vivo, white mice; details: 90 mg/kg i.p.
Procedure: (§5) The potential of CAPAH to provide neuroprotection following a stroke was illustrated by its anti-hypoxic properties in mice using both hypoxia induced directly by lack of oxygen in the atmosphere and hypoxia induced by sodium nitrite injection.
White mice in groups of eight with a weight in the range of 18 to 21 grams were injected subcutaneously with 300 mg/kg of aqueous sodium nitrite and their subsequent lifetime was recorded. A control group of mice received no additional pre-treatment but a second group received a prior intraperitoneal injection of 90 mg/kg CAPAH.

[4] = tested on: apomorphine-induced hypothermia; experiment: Apomorphine-induced hypothermia in mice; format: in vivo; details: 90 mg/kg, 40 min before apomorphine 25 mg/kg s.c.
Procedure: The effect of CAPAH on apomorphine-induced hypothermia and stereotypy was evaluated. The hypothermia was induced by subcutaneously injecting mice with 25 mg/kg of apomorphine. The change in skin temperature was recorded by a TPEM-1 thermometer immediately before injecting with apomorphine and also 60 and 120 minutes after the administration.
(§6) Stereotypy in rats was induced by subcutaneous administration of 20 mg/kg of apomorphine. The total duration of the stereotypy episode was evaluated and also the intensity of individual components thereof (licking, gnawing, sniffing). CAPAH was administered 40 minutes before the apomorphine as a 90 mg/kg dose to the mice and 100 mg/kg dose to the rats.

[5] = tested on: mice immobilization (behavioural despair); experiment: Behavioural despair model (duration of immobilization, swimming); format: in vivo, mice (tetrahybrids SVA); details: 90 mg/kg; for Duration of mice immobilization, behavioural despair test: 6 minutes of observation
Procedure: In this test, mice (tetrahybrids SVA) were obliged to swim in a limited space, presented as a cylindrical vessel which was 15 cm high containing a water level of 6 cm maintained at a temperature of 21° C. A "slowing down" of swimming activity was observed. This "slowing down" is regarded to reflect the state of lowering of spirits and increasing despair of the mice. The slowing down is diminished by anti-depressants.
CAPAH was investigated in acute and chronic application (for 10 days). The mean duration of animal immobility for 6 minutes of observation was estimated in seconds.
CAPAH was injected in a dose of 90 mg/kg 40 minutes before the experiment.

[6] = tested on: learned helplessness (avoidance reaction); experiment: Learned helplessness model (avoidance reaction, shuttle chamber); format: in vivo, mice; details: for Average latence of avoidance period / Percent of nonavoidance from total test number / Average latence of avoidable period: CAPAH 90 mg/kg, melipramine 7 mg/kg, i.p.
Procedure: The phenomenon of learned helplessness is that exposure to uncontrollable stress produces deficits in subsequent learning tasks. The preliminary non-avoidable aversive phase of the test was carried out in dark chambers (30 cm×15 cm×15 cm) with electrodes in the floor. Mice were placed into the chambers individually where they received a number of stimuli (150 mkA, 60 Hz) for 6 seconds with 30 second intervals. Exposure lasted for 40 minutes. 24 hours later the animals were tested in a "shuttle" chamber which consisted of two compartments with the electrode floor connected by the opening situated 1 cm above the base. The entrance to the neighbouring compartment was blocked by a door operated automatically. Stimulation (150 mkA) was directed in turn to each compartment with 30 second intervals and 4 seconds lag. After 10 sessions the door was closed and electric current stopped. The average summary latent time of avoidance was estimated as well as the total number of non-fulfilled reactions.
Experiments were carried out in 40 male […] weighing 18-20 g. Melipramine was used as a standard preparation. Preparations were injected intraperitoneally in doses: CAPAH--90 mg/kg, melipramine--7 mg/kg. Control animals received an equal quantity of distilled water. In the first control group (control 1) mice were not exposed to non-avoidable aversive stimulations; in the second control group (control 2) the animals were exposed to the preliminary non-avoidable aversive influence but without drug preparations.

[7] = Toxicity (LD100, LD50, MTD); format: in vivo; details: for LD50 / MTD: in vivo; for LD50 / MTD / LD100: species and route not given; for MTD: read-out: MTD (maximum tolerance dose)
[8] = tested on: hypoxia induced by direct lack of oxygen; experiment: Lifetime following hypoxia induced by direct lack of oxygen; format: in vivo, white mice
Procedure: as §5
White mice in groups of six with a standard weight of 18 grams were placed in hermetically sealed jars and the lifetime of the animals was recorded.

[9] = tested on: apomorphine-induced stereotypy; experiment: Apomorphine-induced stereotypy in rats; format: in vivo; details: 100 mg/kg, 40 min before apomorphine 20 mg/kg s.c.
Procedure: as §6

[10] = Pharmacological investigation (central nervous system); details: in vivo
[11] = tested on: haloperidol-induced catalepsy; experiment: Impact on catalepsy caused by haloperidol; format: in vivo; details: 100 mg/kg
Procedure: Catalepsy was evaluated from the animal's ability to maintain an awkward posture (hind legs placed on a 30 mm high pedestal and forelegs on the bench) for 90 seconds at intervals of 10, 60 and 120 minutes after the latest administration of haloperidol.

[12] = U.S. Pat. Nos. 4,162,264 and 4,162,311; cited from earlier work

## CN(C)c1ccc(P(=O)(CC(=O)NN)OCCCl)cc1 (stereo not drawn) [CAPAH hydrochloride]
Solubility; water
  water solubility: high water solubility

## CN(C)c1ccc(P(=O)(CC(=O)NN)OCCCl)cc1 (stereo not drawn) [CAPAH, (2-chloroethoxy)(p-N,N-dimethylaminophenyl)phosphinylacetohydrazide]
[1]
  activity on L-dopa induced effects: no activity
[2]; 1 mg/kg
  Latency (sec ± SEM), scopolamine induced amnesia: 35 ± 17 s
[2]; 10 mg/kg
  Latency (sec ± SEM), scopolamine induced amnesia: 52 ± 21 s
[2]; 30 mg/kg
  Latency (sec ± SEM), scopolamine induced amnesia: 36 ± 17 s
[2]; 100 mg/kg
  Latency (sec ± SEM), scopolamine induced amnesia: 49 ± 16 s
[2]; 300 mg/kg
  Latency (sec ± SEM), scopolamine induced amnesia: 76 ± 30 s
[2]; lower doses (below 300 mg/kg)
  memory enhancement in scopolamine-induced amnesia: a trend towards memory enhancement
[2]; only at 300 mg/kg
  reversal of scopolamine-induced amnesia: Statistically significant reversal
Hypoxia induced amnesia; 1 mg/kg
  Latency (sec ± SEM), hypoxia induced amnesia: 135 ± 21 s
Hypoxia induced amnesia; 10 mg/kg
  Latency (sec ± SEM), hypoxia induced amnesia: 111 ± 25 s
Hypoxia induced amnesia; 30 mg/kg
  Latency (sec ± SEM), hypoxia induced amnesia: 71 ± 28 s
Hypoxia induced amnesia; 100 mg/kg
  Latency (sec ± SEM), hypoxia induced amnesia: 119 ± 23 s
Hypoxia induced amnesia; 300 mg/kg (1/3 DL50)
  toxicity of the dose: toxic
Hypoxia induced amnesia; 300 mg/kg
  Latency (sec ± SEM), hypoxia induced amnesia: 20 ± 8 s
Hypoxia induced amnesia; doses 1, 10, 100 mg/kg
  activity in hypoxia induced amnesia test: active
Hypoxia induced amnesia; doses 30, 300 mg/kg
  activity in hypoxia induced amnesia test: Activity was absent
[3]
  effect on lifetime, hypoxia induced by sodium nitrite: extension of lifetime
[3]; sodium nitrite 300 mg/kg s.c.
  Lifetime (± deviation), hypoxia induced by sodium nitrite: 16.9 ± 1.0 min
[4]
  effect on apomorphine-induced hypothermia: no effect
[5]; repeated application
  duration of "slowing down" (anti-depressant activity): lessens the duration of "slowing down"
[5]; repeated injection (10 days)
  Duration of mice immobilization, behavioural despair test: 177.5 ± 17.5
[5]; single injection, 40 min before
  Duration of mice immobilization, behavioural despair test: 210 ± 22.5 s
[6]; 90 mg/kg, single and chronic treatment
  anti-depressant effects, learned helplessness: marked anti-depressant effects
[6]; 6-fold injection
  Average latence of avoidance period: 9.0 ± 0.7
  Percent of nonavoidance from total test number: 2%
[6]; 12-fold injection
  Average latence of avoidable period: 7.9 ± 0.7
  Percent of nonavoidance from total test number: 1.3%
[6]; single injection
  Average latence of avoidable period: 12.1 ± 1.5
  Percent of nonavoidance from total test number: 19%
[7]; comparison with DPAH
  interval between the maximum tolerance dose (MTD) and the LD100: significantly greater interval
  toxicity compared with DPAH: less toxic
[7]
  LD50: 960 ± 35 mg/kg
  MTD: 700 mg/kg
  LD100: 1200 mg/kg
[8]; 30 mg/kg i.p., second experiment
  Lifetime (± deviation), hypoxia by direct lack of oxygen: 16.4 ± 1.2 min
[8]; 45 mg/kg i.p., first experiment
  Lifetime (± deviation), hypoxia by direct lack of oxygen: 18.8 ± 1.1 min
[8]; 90 mg/kg i.p., first experiment
  Lifetime (± deviation), hypoxia by direct lack of oxygen: 17.0 ± 0.1 min
[8]; 90 or 45 mg/kg
  effect on lifetime, hypoxia by direct lack of oxygen: extension of lifetime
[9]
  effect on apomorphine-induced stereotypy: no effect
[10]
  effect on the central nervous system: selectively affects the central nervous system
[11]
  dopamine-mimetic activity: reveals dopamine-mimetic activity
[11]; haloperidol 5 mg/kg hypodermic injection
  effect on haloperidol induced catalepsy: reduces haloperidol induced catalepsy

## NNC(=O)CP(=O)(c1ccccc1)c1ccccc1 [DPAH, diphenylphosphinylacetohydrazide, reference compound]
[12]
  properties of DPAH: vegetropic, anti-epileptic and anti-serotonin properties
[7]
  LD50: 315 ± 24.8 mg/kg
  MTD: 200 mg/kg
  LD100: 500 mg/kg

## CC=CC=NNC(=O)CP(=O)(OCCCl)c1ccc(N(C)C)cc1 (stereo not drawn) [Example 5(A), N^β -(but-2-enylidene)-(2-chloroethoxy)-(p-N,N-dimethylaminophenyl)phosphinylacetohydrazide]
Solubility; dimethyl sulphoxide and other aprotic polar solvents
  solubility in dimethyl sulphoxide and other aprotic polar solvents: soluble in dimethyl sulphoxide and other aprotic polar solvents
Solubility; most organic solvents and water
  solubility in most organic solvents and in water: poorly soluble

## CN(C)CCCN1c2ccccc2CCc2ccccc21 [Melipramine, reference compound]
[6]; 6-fold injection
  Average latence of avoidance period: 11.8 ± 1.5
  Percent of nonavoidance from total test number: 29%
[6]; 12-fold injection
  Average latence of avoidable period: 9.2 ± 1.1
  Percent of nonavoidance from total test number: 11%
[6]; single injection
  Average latence of avoidable period: 13.5 ± 1.8
  Percent of nonavoidance from total test number: 43%

## CN(C)c1ccc(P(=O)(CC(=O)NN=CC=Cc2ccccc2)OCCCl)cc1 (stereo not drawn) [N^β -cinnamaylidene]
Solubility
  solubility compared with the compound described under (A): similar

## CN(C)c1ccc(P(=O)(CC(=O)NN=Cc2cccc([N+](=O)[O-])c2)OCCCl)cc1 (stereo not drawn) [N^β -m-nitrobenzylidene]
Solubility
  solubility compared with the compound described under (A): similar

## CN(C)c1ccc(P(=O)(CC(=O)NN=Cc2ccccc2O)OCCCl)cc1 (stereo not drawn) [N^β -o-hydroxybenzylidene]
Solubility
  solubility compared with the compound described under (A): similar

## NC(=O)CN1CCCC1=O [Piracetam, reference compound]
[2]; 100 mg/kg
  Latency (sec ± SEM), scopolamine induced amnesia: 73 ± 24 s
Hypoxia induced amnesia; 100 mg/kg
  Latency (sec ± SEM), hypoxia induced amnesia: 107 ± 19 s
